Entries after “also recorded” stand apart in the source; their conditions may differ. Values belong to the compound of their own block, whether it stands above or below them.
Legend:
vitamin D receptor = target: T1, vitamin D receptor (Gallus gallus, UniProt O42392); assay: Vitamin D receptor binding (displacement of 3H-1α,25(OH)2D3)
T1 sequence (O42392 1-451): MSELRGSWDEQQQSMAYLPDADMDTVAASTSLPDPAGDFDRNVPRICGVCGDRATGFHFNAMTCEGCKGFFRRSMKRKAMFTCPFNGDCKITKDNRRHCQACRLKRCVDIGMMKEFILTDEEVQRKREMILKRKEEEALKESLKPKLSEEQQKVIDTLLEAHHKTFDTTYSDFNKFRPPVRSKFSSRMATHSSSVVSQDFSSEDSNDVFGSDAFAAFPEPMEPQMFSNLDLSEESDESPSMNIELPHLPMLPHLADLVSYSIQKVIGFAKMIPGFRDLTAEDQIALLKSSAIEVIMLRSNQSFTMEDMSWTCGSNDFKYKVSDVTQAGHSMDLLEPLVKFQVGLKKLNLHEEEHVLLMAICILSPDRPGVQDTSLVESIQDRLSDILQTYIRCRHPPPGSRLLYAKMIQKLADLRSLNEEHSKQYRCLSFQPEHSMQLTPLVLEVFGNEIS
From the text: Bound and free ^3 H-1α,25(OH2)D3 were then separated on dextran-coated charcoal, samples were centrifuged and the supernatants containing the receptor-bound ^3 H-1α,25(OH2)D3 were counted in a liquid scintillation counter.

[1] = Serum calcium in fimbria fornix lesioned rats; format: in vivo, Sprague Dawley rats; details: oral gavage daily 14 days; data not shown
Experimental: For the fimbria fornix lesion studies, serum calcium was determined by the following method. Sprague Dawley rats (200-300 g) were dosed as described below. Blood was collected from the animals after sacrifice and allowed to clot at room temperature for 3-10 minutes; cells were pelleted in a clinical centrifuge.
(§1) The hippocampal ChAT activity is expressed as a percentage of the hippocampal ChAT activity of the […] control side (i.e., lesion control) in FIGS. 4 to 8.

[2] = Calcemic activity in rats, serum calcium after 7 days oral gavage; format: in vivo, LEW/MOL female rats; details: for Calcium in Serum: ± S.D.; for Calcemic Activity (%): potency relative to 1α,25(OH)2 D3, rats, p.o. 7 days; for calcemic classification: summary statement
Experimental: For determining calcemic activity, LEW/MOL female rats (130-170 g) were administered test compounds daily for 7 days by oral gavage. Control rats received the vehicle. Each group consisted of 3 rats. Blood was collected by cardiac puncture on day 7.

[3] = tested on: acrylamide-induced peripheral neuropathy in rats; assay: Acrylamide-induced peripheral neuropathy, landing foot spread; format: in vivo, rat
Experimental: Peripheral neuropathy was induced in rats by the administration of the neurotoxin acrylamide, 50 mg/kg, IP, 3×/week. The acrylamide treatment occurred during the first three weeks of the experiment. After acrylamide was discontinued, the animals were allowed to recover for an additional 3-5 weeks. The ability of Compound (A) or Compound (B) to either slow the onset of peripheral neuropathy, reduce the severity of the peripheral neuropathy or enhance the recovery from peripheral neuropathy was determined. The compounds were administered either orally (Compound (A)) or via subcutaneous Alzet mini-pumps (I month model)(Compounds (A) and (B)) beginning 3 days prior to the first dose of acrylamide. Compound (A) was administered orally at doses of 0.3, 1.0 and 3.0 μg/kg/day and by mini-pump at doses of 10, 55, 100, 330 and 550 ng/day. Compound (B) was administered by mini-pump at doses of 10, 33, 100, 330 and 1000 ng/day. These dose ranges were selected to limit toxicity and to bracket the dose range used in fimbria fornix lesion experiments. The mini-pumps were replaced at the end of the fourth week so that the test compound was on board for the duration of the experiment. In FIG. 11B, the data from FIG. 11A was averaged.

hippocampal ChAT = assay: Fimbria fornix lesion model, hippocampal ChAT activity; format: in vivo, rat; details: oral gavage daily 14 days, FIGS. 4 to 8; * p<0.05 vs vehicle-treated lesioned controls
From the text: The fimbria fornix lesion model is an established protocol for assessing cholinergic neuronal survival in the basal forebrain. […] Contained within the region of the brain 10 are cholinergic neurons 16. A healthy cholinergic neuron has a cell body 18, and one or more axons 20. Each of the axons 20 have a free end, referred to as a terminal 22, that extends into the hippocampus 14. In the fimbria fornix lesion model, damaged cholinergic neurons 24 are produced by transecting a portion of the axons 20 at a location 26 between the hippocampus 14 and the cell body 18. As a result of this transection, damaged cell bodies 28 are produced that no longer have cholinergic axons 30 and terminals 32. These damaged cell bodies 28, also lose cholinergic cell body markers 34 and stop producing ChAT. The fimbria fornix lesion model is used to study methods of restoring ChAT production, such as through stimulating increased production of ChAT in the healthy cholinergic neurons, and/or through restoring normal functioning of the damaged cholinergic neurons 24.
For the studies described herein, animals were anesthetized with pentobarbital and placed in a stereotaxic apparatus. The skull was opened on the left side, a knife was positioned 1.2 mm posterior to bregma and 0.6 mm lateral to the midline. The knife was lowered to 4.5 mm below the dura into the brain and moved laterally 2 mm partially transecting the fimbria fornix. After 14 days of administration of the test compounds by oral gavage, the hippocampus was removed and homogenized.
as §1

NGF mRNA = assay: Induction of NGF mRNA expression in rats; format: in vivo, Sprague Dawley rats
Experimental: Five hours after the last dose, the animals were sacrificed by decapitation. Each brain was quickly removed and chilled in ice-cold saline. The brain was cut into 2 mm thick coronal sections. Portions of the hippocampus, encompassing the CA1 region, and the medial septum were removed by punching 2 mm^3 sections using a calibrated tissue punch. Punched sections were immediately frozen on dry ice and then stored at -70° C. RNA was prepared from dissected tissue pieces.
Punches of tissue were homogenized in […] RNAzolB™ (Bioteex Laboratories, Houston, Tex.) using a homogenizer (Tekmar, Germany) until fully homogenized and then 250 μl RNAzilB™ was added. Typically, punches from the corresponding regions of brains of 2 to 3 animals were combined together. RNA was prepared as recommended by the manufacturer (Biotecx Laboratories). Following isopropanol precipitation, RNA was reprecipitated with ethanol and finally resuspended in 25-50 μL of water. Concentration of RNA was measured spectrophotometrically and the quality of RNA was visualized on a nondenaturing agarose gel. Equal amounts of RNA, usually 1-2 μg, were reverse transcribed using Superscript II™ (Gibco BRL), as recommended by the manufacturer. The assay was terminated by incubation at 95° C. 1 min. at 55-60° C. (depending on the primer set) and 2 min. at 72° C. […] After the assay, samples were electrophoresed on 5% nondenaturing acrylamide gels. Gels were dried and the resulting labeled bands were visualized on a phosphorimager (Storm 840, Molecular Dynamics, Sunnyvale, Calif.). The following primers were used: […]
Nerve Growth Factor (NGF). Primers were designed against the rat sequence.

CNTF mRNA = assay: Induction of CNTF mRNA expression in rats; format: in vivo, Sprague Dawley rats
Experimental: Young adult male Sprague Dawley rats (250-350 g) were administered Compound (A), Compound (E), or a vehicle (80% propylene glycol (human formulation grade; Spectrum Quality Products, Inc., Gardena, Calif., catalog #PR130-55003) and 20% phosphate buffer, pH 9.2) at doses ranging from 0.1 to 5.5 μg/kg daily by oral gavage for eight days. Five hours after the last dose, the animals were sacrificed by decapitation. Each brain was quickly removed and chilled in ice-cold saline. The brain was cut into 2 mm thick coronal sections. Portions of the hippocampus, encompassing the CA1 region, and the medial septum were removed by punching 2 mm^3 sections using a calibrated tissue punch. Punched sections were immediately frozen on dry ice and then stored at -70° C. RNA was prepared from dissected tissue pieces.
Punches of tissue were homogenized in […] RNAzolB™ (Bioteex Laboratories, Houston, Tex.) using a homogenizer (Tekmar, Germany) until fully homogenized and then 250 μl RNAzilB™ was added. Typically, punches from the corresponding regions of brains of 2 to 3 animals were combined together. RNA was prepared as recommended by the manufacturer (Biotecx Laboratories). […] Concentration of RNA was measured spectrophotometrically and the quality of RNA was visualized on a nondenaturing agarose gel. […]

Kd (vitamin D receptor): 0.2 nM | serum calcium at doses giving the ChAT results [1]: low calcemic dose levels | Calcium in Serum ([2]; 10 μg/kg/day p.o., Table 2B (vehicle 2.57 ± 0.06)): 2.51 ± 0.05 mmol/L | Calcium in Serum ([2]; 50 μg/kg/day p.o., Table 2B (vehicle 2.57 ± 0.06)): 2.59 ± 0.02 mmol/L | Calcium in Serum ([2]; 100 μg/kg/day p.o., Table 2B (vehicle 2.57 ± 0.06)): 2.59 ± 0.04 mmol/L | Calcemic Activity (%) [2]: 1%
SMILES: C=C1/C(=C\C=C2/CCC[C@]3(C)[C@@H]([C@@H](C)CSc4cccc(C(C)(C)O)c4)CC[C@@H]23)C[C@@H](O)C[C@@H]1O [Compound (B), 1(S),3(R)-dihydroxy-20(R)-(3-((1-hydroxy-1-methyl)ethyl)phenylthiomethyl)-9,10-seco-pregna-5(Z),7(E),10(19)-triene]
calcemic classification [2]: exemplary of low calcemic vitamin D3 analogues | development of peripheral neuropathy ([3]; continuously pumped (mini-pump)): did not prevent the development of the acrylamide-induced peripheral neuropathy | recovery from peripheral neuropathy ([3]; mini-pump): increased the recovery from acrylamide-induced peripheral neuropathy; also recorded: an effect upon the recovery from the lesion was apparent | return of landing foot spread to sham levels ([3]; mini-pump 10 ng/day): returned to sham levels by day 36 | landing foot spread on day 40 ([3]; mini-pump 10, 100 or 1000 ng/day (FIG. 13B)): statistically significant decrease in landing foot spread | landing foot spread ([3]; mini-pump, recovery period): decreased landing foot spread during the recovery period | hippocampal ChAT activity vs lesioned controls (hippocampal ChAT): significant increase in CHAT activity

serum calcium at doses giving the ChAT results [1]: low calcemic dose levels | Calcium in Serum ([2]; 0.1 μg/kg/day p.o., Table 2C (vehicle 2.68 ± 0.03)): 2.71 ± 0.07 mmol/L | Calcium in Serum ([2]; 1.0 μg/kg/day p.o., Table 2C (vehicle 2.68 ± 0.03)): 2.66 ± 0.06 mmol/L | Calcium in Serum ([2]; 10 μg/kg/day p.o., Table 2C (vehicle 2.68 ± 0.03)): 2.82 ± 0.05 mmol/L | Calcemic Activity (%) [2]: 8%
SMILES: C=C1/C(=C\C=C2/CCC[C@]3(C)[C@@H]([C@@H](C)COc4cccc(C(C)(C)O)c4)CC[C@@H]23)C[C@@H](O)C[C@@H]1O [Compound (C), 1(S), 3(R)-dihydroxy-20(R)-[3-(2-hydroxy-2-propyl)-phenoxymethyl]-9,10-seco-pregna-5(Z),7(E),10(19)-triene]
calcemic classification [2]: exemplary of low calcemic vitamin D3 analogues | hippocampal ChAT activity vs lesioned controls (hippocampal ChAT): significant increase in CHAT activity

serum calcium at doses giving the ChAT results [1]: low calcemic dose levels | Calcium in Serum ([2]; 0.1 μg/kg/day p.o., Table 2D (vehicle 2.51 ± 0.09)): 2.59 ± 0.08 mmol/L | Calcium in Serum ([2]; 5.0 μg/kg/day p.o., Table 2D (vehicle 2.51 ± 0.09)): 2.90 ± 0.06 mmol/L | Calcium in Serum ([2]; 10 μg/kg/day p.o., Table 2D (vehicle 2.51 ± 0.09)): 3.19 ± 0.16 mmol/L | Calcemic Activity (%) [2]: 20%
SMILES: C=C1/C(=C\C=C2/CCC[C@]3(C)[C@@H]([C@H](C)CCCCC(O)(CC)CC)CC[C@@H]23)C[C@@H](O)C[C@@H]1O [Compound (D)]
calcemic classification [2]: exemplary of low calcemic vitamin D3 analogues | hippocampal ChAT activity vs lesioned controls (hippocampal ChAT): significant increase in CHAT activity

Kd (vitamin D receptor): 0.3 nM | serum calcium at doses giving the ChAT results [1]: low calcemic dose levels | Calcium in Serum ([2]; 0.1 μg/kg/day p.o., Table 2E (vehicle 2.51 ± 0.09)): 2.41 ± 0.01 mmol/L | Calcium in Serum ([2]; 1.0 μg/kg/day p.o., Table 2E (vehicle 2.51 ± 0.09)): 2.42 ± 0.04 mmol/L | Calcium in Serum ([2]; 10 μg/kg/day p.o., Table 2E (vehicle 2.51 ± 0.09)): 2.38 ± 0.03 mmol/L | Calcemic Activity (%) [2]: 20%
SMILES: C=C1/C(=C\C=C2/CCC[C@]3(C)[C@@H]([C@H](C)/C=C/C#CC(O)(CC)CC)CC[C@@H]23)C[C@@H](O)C[C@@H]1O [Compound (E)]
production of NGF mRNA (NGF mRNA; 0.3, 1.0, 3.0, and 5.5 μg/kg oral, 8 days, rat septum (FIG. 2A)): facilitated the production of NGF mRNA | dose dependence of NGF mRNA production (NGF mRNA; 0.3-5.5 μg/kg, rat septum): generally increased with increasing dosage | calcemic classification [2]: exemplary of low calcemic vitamin D3 analogues | production of CTNF mRNA (CNTF mRNA; 0.3, 1.0, 3.0, and 5.5 μg/kg oral, 8 days, rat septum (FIG. 2B)): facilitated the production of NGF mRNA and CTNF mRNA | dose dependence of CTNF mRNA production (CNTF mRNA; 0.3-5.5 μg/kg, rat septum): generally increased with increasing dosage | hippocampal ChAT activity vs lesioned controls (hippocampal ChAT): significant increase in CHAT activity

Source: patent US6207656A, “Vitamin D analogues and their neuronal effects” (Cephalon, Inc., priority 1998, dated 2001)
